Key:
[1] = test system: platelets; assay: Platelet levels in mice after 5 consecutive once daily injections; assay type: in vivo, mice (Hsd:Athymic Nude-Foxn1nu); details: 60 min after last dose
Protocol: On the fifth day, 60 min after the administration, mice were sacrificed and blood was collected in sodium citrate-containing tubes for haemogram analysis. Platelet levels were determined and referred as % of platelets compared with the levels found in mice treated with vehicle. Platelet levels were determined in a standard hematology analyzer (Abacus Junior Vet, from Diatron) following the manufacturer's instructions.
20% 2-hydroxypropyl-β-cyclodextrin in H2O was used as a vehicle. When necessary, 10% DMSO was also added in the vehicle. Each day, compounds were administered in a single intraperitoneal injection with administration volumes of 15 ml/kg.
Mice strain was Hsd:Athymic Nude-Foxn1nu. Animals were maintained in air and temperature controlled cages with regular supply of water and food.

[2] = target: T1, Human recombinant monoamine oxidase MAO-A (Homo sapiens, UniProt P21397); assay: MAO-A inhibition, kynuramine fluorescence assay; assay type: biochemical
T1 construct: purchased Sigma Aldrich
T1 sequence (P21397 1-527): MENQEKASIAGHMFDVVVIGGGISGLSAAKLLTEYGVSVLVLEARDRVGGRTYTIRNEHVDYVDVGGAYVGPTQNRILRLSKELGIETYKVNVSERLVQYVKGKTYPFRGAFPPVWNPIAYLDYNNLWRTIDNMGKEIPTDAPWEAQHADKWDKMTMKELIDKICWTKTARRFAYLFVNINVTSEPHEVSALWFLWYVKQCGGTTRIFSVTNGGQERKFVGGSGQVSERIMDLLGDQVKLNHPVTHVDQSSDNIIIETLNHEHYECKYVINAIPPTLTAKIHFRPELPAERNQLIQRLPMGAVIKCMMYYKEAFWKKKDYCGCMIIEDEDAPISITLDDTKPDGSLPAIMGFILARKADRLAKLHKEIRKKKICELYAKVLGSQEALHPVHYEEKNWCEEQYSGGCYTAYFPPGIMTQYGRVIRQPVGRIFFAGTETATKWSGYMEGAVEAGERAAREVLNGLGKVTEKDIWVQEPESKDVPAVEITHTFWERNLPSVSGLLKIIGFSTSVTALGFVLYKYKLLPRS
From the text: (§1) Human recombinant monoamine oxidase proteins MAO-A and MAO-B were purchased from Sigma Aldrich. MAOs catalyze the oxidative deamination of primary, secondary and tertiary amines. In order to monitor MAO enzymatic activities and/or their inhibition rate by inhibitor(s) of interest, a fluorescent-based (inhibitor)-screening assay was set up. 3-(2-Aminophenyl)-3-oxopropanamine (kynuramine dihydrobromide, Sigma Aldrich), a non fluorescent compound was chosen as a substrate. Kynuramine is a non-specific substrate for both MAOs activities. While undergoing oxidative deamination by MAO activities, kynuramine is converted into 4-hydroxyquinoline (4-HQ), a resulting fluorescent product.
(§2) The monoamine oxidase activity was estimated by measuring the conversion of kynuramine into 4-hydroxyquinoline. […]
(§3) After leaving the enzyme(s) interacting with the inhibitor, 60 to 90 μM of kynuramine was added to each reaction for MAO-B and MAO-A assay respectively, and the reaction was left for 1 hour at 37° C. in the dark. […] The conversion of kynuramine to 4-hydroxyquinoline, was monitored by fluorescence (excitation at 320 nm, emission at 360 nm) using a microplate reader (Infinite 200, Tecan). Arbitrary units were used to measure levels of fluorescence produced in the absence and/or in the presence of inhibitor.
(§4) The Ki (IC50) of each inhibitor was determined at Vmax/2.

[3] = test system: H3K4 methylation in SH-SY5Y cells; assay: Western blot for dimethylated H3-K4 in SH-SY5Y cells; assay type: cell-based
From the text: B-actin was used as a loading control.

[4] = target: LSD1 (Homo sapiens, UniProt O60341); assay: LSD1 demethylase inhibition, Amplex Red peroxide/peroxidase-coupled assay with di-methylated H3-K4 peptide; assay type: biochemical; parameters: purchased BPS Bioscience Inc
From the text: Compounds for use in the methods of the invention can be identified by their ability to inhibit LSD1. The ability of the compounds of the invention to inhibit LSD1 can be tested as follows. Human recombinant LSD1 protein was purchased from BPS Bioscience Inc. In order to monitor LSD1 enzymatic activity and/or its inhibition rate by our inhibitor(s) of interest, di-methylated H3-K4 peptide (Millipore) was chosen as a substrate. The demethylase activity was estimated, under aerobic conditions, by measuring the release of H2O2 produced during the catalytic process, using the Amplex® Red peroxide/peroxidase-coupled assay kit (Invitrogen).
Within the experiment, each concentration of inhibitor was tested in triplicate. […] The enzymatic reactions were set up in a 50 mM sodium phosphate, pH 7.4 buffer. […] The conversion of the Amplex® Red reagent to resorufin due to the presence of H2O2 in the assay, was monitored by fluorescence (excitation at 540 nm, emission at 590 nm) using a microplate reader (Infinite 200, Tecan). […]
The maximum demethylase activity of LSD1 was obtained in the absence of inhibitor and corrected for background fluorescence in the absence of LSD1. […]

[5] = target: T2, Human recombinant monoamine oxidase MAO-B (Homo sapiens, UniProt P27338); assay: MAO-B inhibition, kynuramine fluorescence assay; assay type: biochemical
T2 construct: purchased Sigma Aldrich
T2 sequence (P27338 1-520): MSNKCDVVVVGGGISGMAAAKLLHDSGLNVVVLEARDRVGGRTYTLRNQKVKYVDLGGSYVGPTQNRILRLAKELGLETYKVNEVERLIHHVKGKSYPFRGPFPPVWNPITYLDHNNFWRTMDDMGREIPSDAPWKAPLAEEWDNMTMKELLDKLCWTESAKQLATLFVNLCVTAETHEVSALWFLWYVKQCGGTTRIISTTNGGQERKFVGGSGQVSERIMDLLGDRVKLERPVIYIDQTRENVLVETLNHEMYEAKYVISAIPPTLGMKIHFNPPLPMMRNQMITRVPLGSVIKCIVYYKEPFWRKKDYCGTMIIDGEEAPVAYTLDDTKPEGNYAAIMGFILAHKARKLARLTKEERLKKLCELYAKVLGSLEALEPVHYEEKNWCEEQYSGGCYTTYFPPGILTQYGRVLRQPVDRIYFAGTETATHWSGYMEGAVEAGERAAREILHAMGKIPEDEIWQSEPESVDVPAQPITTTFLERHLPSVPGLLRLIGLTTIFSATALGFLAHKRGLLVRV
From the text: as §1, §2, §3, §4

[6] = 10 mg/kg i.p. once daily x 5 days
[7] = 20 mg/kg i.p. once daily x 5 days
[8] = 40 mg/kg i.p. once daily x 5 days

SMILES | % platelet vs. Vehicle [1, 6] [%] | IC50 [2] [nM] | % platelet vs. Vehicle [1, 7] [%] | % platelet vs. Vehicle [1, 8] [%] | IC50 [4] [nM] | other results
CN1CCN(C(=O)CN[C@H]2C[C@@H]2c2ccc(OCc3ccccc3)cc2)CC1 (racemic) [Compound 3] | 5 |  |  |  |  | % platelet vs. Vehicle ([1]; 1 mg/kg i.p. once daily x 5 days): 46%; % platelet vs. Vehicle ([1]; 3 mg/kg i.p. once daily x 5 days): 16%
NC(=O)CN[C@@H]1C[C@H]1c1ccc(OCc2ccccc2)cc1 (relative stereo) [Compound 1] | 66 | > 2000 | 55 | 34 | < 200 | H3K4 methylation (western blot) ([3]; SH-SY5Y cells grown with compound for 1, 2 and 3 days, Dual-1 at 100 μM (FIG. 3)): increases H3K4 methylation in cells in a time dependent manner; potency at increasing global dimethylated H3K4 levels as compared to tranylcypromine ([3]; SH-SY5Y cells, 1, 2 and 3 days): ≥ 10 fold; % platelet vs. Vehicle ([1]; 5 mg/kg i.p. once daily x 5 days): 91%
N[C@H]1CCN(CCN[C@H]2C[C@@H]2c2ccc(-c3cccc(C(F)(F)F)c3)cc2)C1 [Compound 5] |  | > 500 |  |  | < 200 | IC50 [5]: > 1000 nM
N[C@H]1CC1c1ccc(-c2cccc(O)c2)cc1 (stereo partly shown) [Compound 6] |  |  |  |  |  | % platelet vs. Vehicle ([1]; 17 mg/kg i.p. once daily x 5 days): 56%; % platelet vs. Vehicle ([1]; 34 mg/kg i.p. once daily x 5 days): 46%; % platelet vs. Vehicle ([1]; 52 mg/kg i.p. once daily x 5 days): 63%
CS(=O)(=O)Nc1cccc(-c2ccc(C3C[C@@H]3N)cn2)c1 (stereo partly shown) [Compound 7] |  |  | 68 | 44 |  | 

— US9908859B2, “Lysine demethylase inhibitors for myeloproliferative disorders” (Oryzon Genomics S.A., priority 2011, dated 2018)
